Test results: patent publication US20260345596A1, “TREATMENT OF LOCALLY ADVANCED OR METASTATIC UROTHELIAL CARCINOMA WITH ERDAFINITIB” (priority 2023, published 2026)

Test: Study BLC3001 (NCT03390504, THOR) Cohort 1: safety, adverse events, laboratory abnormalities and exposure
Settings: for Central serous retinopathy / Chorioretinopathy / Detachment of macular retinal pigment epithelium / Detachment of retinal pigment epithelium / Eye disorders (excluding central serous retinopathy) / Macular detachment / Nail disorders / Retinopathy / Skin disorders / Subretinal fluid: adverse events of interest; for Hematuria / Hyponatremia / Urinary tract infection: serious adverse events, any cause

## COc1cc(OC)cc(N(CCNC(C)C)c2ccc3ncc(-c4cnn(C)c4)nc3c2)c1 [Erdafitinib, N-(3,5-dimethoxyphenyl)-N′-(1-methylethyl)-N-[3-(1-methyl-1H-pyrazol-4-yl)quinoxalin-6-yl]ethane-1,2-diamine]
5 of 7 ongoing
  Ongoing central serous retinopathy events of grade 1: 71%
16 of 23 patients, any grade
  Central serous retinopathy events resolved by clinical cutoff: 70%
Grade 1
  Central serous retinopathy: 12 (8.9) no. (%)
  Chorioretinopathy: 5 (3.7) no. (%)
  Detachment of macular retinal pigment epithelium: 0 no. (%)
  Detachment of retinal pigment epithelium: 3 (2.2) no. (%)
  Eye disorders (excluding central serous retinopathy): 37 (27.4) no. (%)
  Macular detachment: 2 (1.5) no. (%)
  Nail disorders: 25 (18.5) no. (%)
  Retinopathy: 0 no. (%)
  Skin disorders: 27 (20) no. (%)
  Subretinal fluid: 4 (3.0) no. (%)
  Hematuria: 0 no. (%)
  Hyponatremia: 0 no. (%)
  Urinary tract infection: 0 no. (%)
Grade 1, treatment-emergent
  Alanine aminotransferase increased: 28 (20.7) no. (%)
  Alopecia: 29 (21.5) no. (%)
  Anemia: 10 (7.4) no. (%)
  Aspartate aminotransferase increased: 21 (15.6) no. (%)
  Asthenia: 6 (4.4) no. (%)
  Constipation: 24 (17.8) no. (%)
  Decreased appetite: 18 (13.3) no. (%)
  Diarrhea: 49 (36.3) no. (%)
  Dry eye: 20 (14.8) no. (%)
  Dry mouth: 45 (33.3) no. (%)
  Dry skin: 23 (17.0) no. (%)
  Dysgeusia: 28 (20.7) no. (%)
  Fatigue: 12 (8.9) no. (%)
  Hyperphosphatemia: 70 (51.9) no. (%)
  Nausea: 10 (7.4) no. (%)
  Neutropenia: 0 no. (%)
  Onycholysis: 9 (6.7) no. (%)
  Onychomadesis: 9 (6.7) no. (%)
  Palmar-plantar erythrodysesthesia syndrome: 6 (4.4) no. (%)
  Stomatitis: 22 (16.3) no. (%)
  Weight decreased: 12 (8.9) no. (%)
Grade 1, treatment-related
  Alanine aminotransferase increased: 18 (13.3) no. (%)
  Alopecia: 27 (20.0) no. (%)
  Anemia: 8 (5.9) no. (%)
  Aspartate aminotransferase increased: 18 (13.3) no. (%)
  Asthenia: 4 (3.0) no. (%)
  Constipation: 8 (5.9) no. (%)
  Decreased appetite: 15 (11.1) no. (%)
  Diarrhea: 43 (31.9) no. (%)
  Dry eye: 19 (14.1) no. (%)
  Dry mouth: 44 (32.6) no. (%)
  Dry skin: 22 (16.3) no. (%)
  Dysgeusia: 25 (18.5) no. (%)
  Fatigue: 12 (8.9) no. (%)
  Hyperphosphatemia: 70 (51.9) no. (%)
  Nausea: 6 (4.4) no. (%)
  Neutropenia: 0 no. (%)
  Onycholysis: 9 (6.7) no. (%)
  Onychomadesis: 8 (5.9) no. (%)
  Palmar-plantar erythrodysesthesia syndrome: 6 (4.4) no. (%)
  Stomatitis: 20 (14.8) no. (%)
Grade 2
  Central serous retinopathy: 8 (5.9) no. (%)
  Chorioretinopathy: 3 (2.2) no. (%)
  Detachment of macular retinal pigment epithelium: 0 no. (%)
  Detachment of retinal pigment epithelium: 2 (1.5) no. (%)
  Eye disorders (excluding central serous retinopathy): 17 (12.6) no. (%)
  Macular detachment: 0 no. (%)
  Nail disorders: 50 (37.0) no. (%)
  Retinopathy: 2 (1.5) no. (%)
  Skin disorders: 31 (23.0) no. (%)
  Subretinal fluid: 1 (0.7) no. (%)
  Hematuria: 2 (1.5) no. (%)
  Hyponatremia: 0 no. (%)
  Urinary tract infection: 0 no. (%)
Grade 2, treatment-emergent
  Alanine aminotransferase increased: 8 (5.9) no. (%)
  Alopecia: 4 (3.0) no. (%)
  Aspartate aminotransferase increased: 5 (3.7) no. (%)
  Asthenia: 12 (8.9) no. (%)
  Constipation: 12 (8.9) no. (%)
  Decreased appetite: 14 (10.4) no. (%)
  Diarrhea: 31 (23.0) no. (%)
  Dry eye: 3 (2.2) no. (%)
  Dry mouth: 8 (5.9) no. (%)
  Dry skin: 6 (4.4) no. (%)
  Dysgeusia: 8 (5.9) no. (%)
  Fatigue: 8 (5.9) no. (%)
  Hyperphosphatemia: 31 (23.0) no. (%)
  Nausea: 8 (5.9) no. (%)
  Neutropenia: 0 no. (%)
  Onycholysis: 14 (10.4) no. (%)
  Onychomadesis: 17 (12.6) no. (%)
  Palmar-plantar erythrodysesthesia syndrome: 22 (16.3) no. (%)
  Stomatitis: 32 (23.7) no. (%)
  Weight decreased: 15 (11.1) no. (%)
Grade 2, treatment-related
  Alanine aminotransferase increased: 7 (5.2) no. (%)
  Alopecia: 4 (3.0) no. (%)
  Anemia: 4 (3.0) no. (%)
  Aspartate aminotransferase increased: 5 (3.7) no. (%)
  Asthenia: 6 (4.4) no. (%)
  Constipation: 4 (3.0) no. (%)
  Decreased appetite: 10 (7.4) no. (%)
  Diarrhea: 27 (20.0) no. (%)
  Dry eye: 3 (2.2) no. (%)
  Dry mouth: 8 (5.9) no. (%)
  Dry skin: 6 (4.4) no. (%)
  Dysgeusia: 8 (5.9) no. (%)
  Fatigue: 6 (4.4) no. (%)
  Hyperphosphatemia: 29 (21.5) no. (%)
  Nausea: 7 (5.2) no. (%)
  Neutropenia: 0 no. (%)
  Onycholysis: 14 (10.4) no. (%)
  Onychomadesis: 17 (12.6) no. (%)
  Palmar-plantar erythrodysesthesia syndrome: 22 (16.3) no. (%)
  Stomatitis: 31 (23.0) no. (%)
Grade ≥3
  Central serous retinopathy: 3 (2.2) no. (%)
  Chorioretinopathy: 0 no. (%)
  Detachment of macular retinal pigment epithelium: 1 (0.7) no. (%)
  Detachment of retinal pigment epithelium: 2 (1.5) no. (%)
  Eye disorders (excluding central serous retinopathy): 3 (2.2) no. (%)
  Macular detachment: 0 no. (%)
  Nail disorders: 15 (11.1) no. (%)
  Retinopathy: 0 no. (%)
  Skin disorders: 16 (11.9) no. (%)
  Subretinal fluid: 0 no. (%)
  Hematuria: 3 (2.2) no. (%)
  Hyponatremia: 3 (2.2) no. (%)
  Urinary tract infection: 6 (4.4) no. (%)
Grade ≥3, treatment-emergent
  Alanine aminotransferase increased: 4 (3.0) no. (%)
  Alopecia: 1 (0.7) no. (%)
  Anemia: 10 (7.4) no. (%)
  Aspartate aminotransferase increased: 3 (2.2) no. (%)
  Asthenia: 2 (1.5) no. (%)
  Constipation: 0 no. (%)
  Decreased appetite: 4 (3.0) no. (%)
  Diarrhea: 4 (3.0) no. (%)
  Dry eye: 0 no. (%)
  Dry mouth: 0 no. (%)
  Dry skin: 2 (1.5) no. (%)
  Dysgeusia: 1 (0.7) no. (%)
  Fatigue: 0 no. (%)
  Hyperphosphatemia: 7 (5.2) no. (%)
  Nausea: 2 (1.5) no. (%)
  Neutropenia: 0 no. (%)
  Onycholysis: 8 (5.9) no. (%)
  Onychomadesis: 2 (1.5) no. (%)
  Palmar-plantar erythrodysesthesia syndrome: 13 (9.6) no. (%)
  Stomatitis: 11 (8.1) no. (%)
  Weight decreased: 3 (2.2) no. (%)
Grade ≥3, treatment-related
  Alanine aminotransferase increased: 4 (3.0) no. (%)
  Alopecia: 1 (0.7) no. (%)
  Anemia: 4 (3.0) no. (%)
